# According to US11925649B2, “Treatments for diabetic neuropathy” (University of Manitoba, priority 2010, dated 2024):
# Assays:
# [1] = tested on: STZ-induced diabetic C57Bl6J mice; assay: Reappearance of neuropathy after withdrawal of treatment; assay type: in vivo, mouse
# Text: Only 9 weeks later (the 17-wk time point) was there a significant reappearance of hypoalgesia in the previously treated STZ-induced diabetic mice (FIG. 12).
# [2] = tested on: STZ diabetic C57Bl6J mice; assay: Prophylactic subcutaneous injections in STZ diabetic mice; assay type: in vivo, mouse
# Procedure: Male C57Bl6J mice were made diabetic with 2 injections of 90 mg/kg STZ on consecutive days, and then separated into four groups.
# Two months after the second STZ injection, the function of the small sensory neurons in all five groups of mice were determined by measuring hind paw thermal response latency using a modified Hargreaves apparatus (UARD, San Diego, CA, US) with a heating rate of approximately 1° C./sec from a baseline of 30° C. and with a cut-off at 20 seconds as taught by Calcutt et al. (2004, Diabetologia 47: 718-724). […] Statistical analysis was done using the one-way ANOVA with post-hoc comparison using Tukey's test.
# The structural integrity of small sensory neurons was assessed by measuring intraepidermal nerve fiber (IENF) profiles in hind paw plantar skin that was immersion fixed in 4% paraformaldehyde and processed to paraffin blocks. Sections (6 μm) were stained with the pan-neuronal marker PGP9.5 (1:1000, Biogenesis Ltd., Poole, UK) and viewed under a light microscope to allow counting of IENF and sub-epidermal nerve profiles (SNP) per unit length of the dermal: epidermal border using the technique taught by Beiswenger et al. (2008, Neurosci Lett. 442, 267-272). […] Statistical analyses were done using one-way ANOVA followed by Tukey's test.
# Motor nerve conduction velocity was measured under isoflurane anesthesia and core and nerve temperature were maintained at 37° C. using a heating pad and lamps following the teachings of Jolivalt et al, (2011, Diabetes Obesity and Metabolism, June 2 Epub ahead of print). The sciatic nerve was stimulated (5V, 0.05 ms pulse, square wave) with needle electrodes at the sciatic notch or ankle. […] The difference in response latencies of the M wave after stimulation at the sciatic notch and ankle was recorded as the time required for the motor nerve conduction between the stimulation sites. The distance between stimulation sites was measured on the surface of the fully extended hind limb and divided by the difference in M wave latencies to calculate sciatic motor nerve conduction velocity (MNCV). […]
# [3] = tested on: mitochondrial respiratory complex IV; assay: Mitochondrial respiratory complex IV activity in DRG of STZ-diabetic mice; assay type: in vivo, mouse; conditions: daily injections for 8 weeks, lumbar DRG
# Procedure: (§1) All measurements of enzymatic activities in lumbar DRG preparations were performed spectrophotometrically using a temperature controlled Ultrospec 2100 UV-visible spectrophotometer (Biopharmacia Biotech, Uppsala, Sweden) using the methods taught by Chowdhury et al. (2010). Complex I activity was measured as rotenone-sensitive NADH: cytochrome c reductase activity. Freshly prepared assay buffer (50 mmol/l K-phosphate pH 7.4, 1 mmol/l KCN, 100 μmol/l NADH) and 10 μg protein of DRG homogenate preparation were added to the cuvette and preincubated for 3 min at 25° C. After addition of 100 μmol/l oxidized cytochrome c, the reaction was followed for 2 minutes at 550 nm and then for 2 more minutes after addition of 25 μmol/l rotenone to allow calculation of the rotenone-sensitive Complex I activity. Complex IV activity was measured at 25° C. by monitoring the absorbance decrease of reduced cytochrome c at 550 nm as disclosed by Chowdhury et al. (2000, Clin. Chim. Acta 298: 157-173). […] Activity of the Krebs cycle enzyme, citrate synthase, was determined at 25° C. in medium containing 150 mmol/l Tris-HCl (pH 8.2), 0.02% laurylmaltoside, 0.1 mmol/l dithionitrobenzoic acid and 5 μg protein according to the method of Chowdhury et al (2007, Free Radic. Res. 41: 1116-1124). The reaction was initiated by addition of 100 μmol/l acetyl CoA and changes in absorbance at 412 nm were measured for 1 minute. […]
# [4] = tested on: STZ diabetic Swiss Webster mice; assay: Restorative subcutaneous injections in diabetic mice; assay type: in vivo, mouse; conditions: 10 mg/kg daily s.c. from week 14
# Procedure: Male out-bred Swiss Webster mice were made diabetic with 2 injections of 90 mg/kg STZ on consecutive days. […] The mice were maintained for 14 weeks after STZ injections. […] At 14 weeks, the diabetic mice were separated into two groups. The first was the untreated group of diabetic mice.
# The function of the small sensory neurons in diabetic and non-diabetic groups of mice were assessed at 5 wks, 7 wks, 11 wks, and 14 wks after the STZ injections.
# [5] = tested on: mitochondrial respiratory complex I; assay: Mitochondrial respiratory complex I activity in DRG of STZ-diabetic mice; assay type: in vivo, mouse; conditions: daily injections for 8 weeks, lumbar DRG
# Procedure: as §1
# [6] = tested on: sensory neurons from DRG of Sprague Dawley rat; assay: Total neurite outgrowth at low concentrations of M1R antagonists (immunostaining); assay type: cell-based; conditions: 24 hr culture
# Procedure: Sensory neurons from cervical, thoracic and lumbar DRG of an adult 3-4 month old male Sprague Dawley rat were isolated and dissociated using the method described in Example 1, and then were cultured for 24 h in serum-free and insulin-free F12 medium in the presence of modified N2 additives. […] Neurite outgrowth was then assessed after a culture period of 24 hr.
# Total neurite lengths (i.e., the sum of the length of all neurites produced by an individual neuron) were assessed using an immunostaining method. […] Four images were captured per well and the replicate well frequency was set to n=6. The neuronal marker β-tubulin III (Sigma-Aldrich Canada Ltd.) was applied to formalin fixed cells. The marker was tagged with the fluorescent conjugate Alexa Fluor 488 (Invitrogen Canada Ltd.). Fluorescent images were collected using an Olympus IX71 inverted microscope with a 20×/0.45 PH1 [sequence] objective that was suitable for resolving images on plastic surfaces. […] Captured image fluorescence was thereafter converted to a grayscale 8-bit image to quantify total pixel volume. […] Total pixel volume of the neuron specific cell bodies and neurites were quantified. […] The net pixel volume was normalized against the number of neuronal cells per quantified field.
# [7] = tested on: STZ-diabetic Swiss Webster mice; assay: Reversal of diabetic sensory neuropathy with oral dosing; assay type: in vivo, mouse
# Procedure: Male out-bred Swiss Webster mice were made diabetic with 2 injections of 90 mg/kg STZ on consecutive days. […] The mice were maintained for 8 weeks after STZ injections.
# [8] = tested on: STZ diabetic C57Bl6J mice; assay: Prophylactic topical hydrogel application in STZ diabetic mice; assay type: in vivo, mouse
# Procedure: Male C57Bl6J mice were made diabetic with 2 injections of 90 mg/kg STZ on consecutive days, and then separated into three groups. There were also two groups control (non-diabetic) mice. The first group of control (non-diabetic) mice received daily topical treatment with 50 μl Intrasite® hydrogel (Intrasite is a registered trademark of T. J. Smith and Nephew, Hull, England) to both hind paws, with a controlled exposure time of 20 minutes. […] The third group of mice were diabetic mice that received daily topical treatment with 50 μl hydrogel to both hind paws.
# Two months after the second STZ injection, the function of the small sensory neurons in all five groups of mice were determined by measuring hind paw thermal response latency following the procedure described in Example 7.
# The structural integrity of small sensory neurons was assessed by measuring IENF profiles in hind paw plantar skin as described in Example 7.
# A suitable gel is exemplified by Intrasite® sterile hydrogel prod. no. 66027313 (Smith & Nephew Inc, St. Laurent, PQ, CA).
# [9] = tested on: DRG sensory neurons from wildtype mice; assay: Neurite outgrowth in sensory neuron cultures from wildtype mice; assay type: cell-based, mouse; conditions: 1 μM, 24 hr, low dose growth factors
# NDUFS3 = NDUFS3 expression in DRG of STZ-diabetic mice (Western blot); assay type: in vivo, mouse; conditions: daily injections for 8 weeks
# Procedure: Quantitative Western blotting was performed as described in Example 15. Quantitative Western blotting was performed as previously disclosed by Chowdhury et al (2010) and Fernyhough et al. (1999). DRG homogenates of 5-10 μg of protein were resolved on a 10% SDS-PAGE gel and electroblotted onto nitrocellulose membrane. Blots were then blocked in 5% nonfat milk containing 0.05% Tween-20, rinsed in PBS (pH 7.4) and incubated with the following antibodies: monoclonal anti-cytochrome c oxidase subunit 4 (COX IV; 1:1000, Mitosciences, Eugene, OR, US), monoclonal anti-NADH dehydrogenase (ubiquinone) iron-sulfur protein 3 (NDUFS3, 1:1000, Mitosciences, Eugene, OR, US). Extracellular signal-regulated kinase (T-ERK; 1:2000, Covance, Princeton, NJ, US) was probed as a loading control. The blots were rinsed, incubated in Western blotting Luminol Reagent (Santa Cruz Biotechnology Inc., Santa Cruz, CA, US) and imaged using a BioRad Fluor-S image analyzer (BioRad, Hercules, CA, US).
# citrate synthase = assay: Citrate synthase activity in DRG of STZ-diabetic mice; assay type: in vivo, mouse; conditions: daily injections for 8 weeks, lumbar DRG
# Procedure: as §1
# [10] = tested on: STZ diabetic Sprague Dawley rats; assay: Reversal of thermal hypoalgesia in diabetic rats, subcutaneous; assay type: in vivo, rat; conditions: 10 mg/kg daily s.c. from week 12; 20th week, 8 weeks of treatment
# Procedure: One group of adult male Sprague Dawley rats were made diabetic with a single intraperitoneal injection of 75 mg/kg STZ, while a second group of adult male rats were maintained as non-diabetic controls. The two groups of rats were monitored for the onset of […] by assessing thermal latency at 4-wk intervals.
# [11] = 10 mg/kg daily s.c., two months after STZ, vs control mice
# [12] = daily oral gavage for 8 weeks from week 8
# [13] = control (non-diabetic) mice, 10% hydrogel, treated hindpaw
# [14] = diabetic mice, 2% or 10% hydrogel, vs control mice
smiles,measurement,setting,value
"CN1CCN(CC(=O)N2c3ccccc3C(=O)Nc3cccnc32)CC1 [pirenzepine, 11-[2-(4-methylpiperazin-1-yl)acetyl]-5H-pyrido[2,3-b][1,4]benzodiazepin-6-1]",thermal hypoalgesia,"[1]; 10 mg/kg daily s.c., after 8 weeks",hypoalgesia was prevented
same,time after stopping treatment to significant reappearance of hypoalgesia,"[1]; treatment stopped at 8 weeks, 17-wk time point",9 weeks
same,hind paw thermal response latency,[2]; [11],not significantly different from the control non-diabetic mice
same,paw levels of IENF,[2]; [11],no significant changes
same,motor nerve conduction velocity,[2]; diabetic mice,prevented deficits in motor nerve conduction velocity
same,activity of mitochondrial respiratory complex IV,[3],restored the deficits
same,thermal latency,"[4]; 21st week, 7 weeks of treatment",identical to the non-diabetic controls
same,IENF profiles,[4]; at 21 weeks,restored the IENF profiles to approximate those of the non-diabetic control mice
same,thermal latency,[4]; within 4 weeks of treatment (18 weeks),significantly reduced thermal latency
same,activity of mitochondrial respiratory complex I,[5],restored the deficits
same,concentration that significantly increased total neurite outgrowth,[6],≥ 0.003 µM
same,loss of IENF,[7]; [12],reversed loss
same,loss of SNP,[7]; [12],reversed loss
same,thermal hypoalgesia,[7]; [12],reversed thermal hypoalgesia
same,efficacy of oral formulation,"[7]; dissolved in water, administered orally to mice",exhibited efficacy
same,IENF per mm of skin,[8]; [13],"numerically, but statistically insignificant, increases"
same,SNP per mm of skin,[8]; [13],"numerically, but statistically insignificant, increases"
same,thermal response latency,"[8]; control (non-diabetic) mice, daily topical hydrogel comprising 10% pirenzepine",not affected
same,levels of IENF in treated paw,[8]; [14],no significant changes
same,levels of SNP in treated paw,[8]; [14],no significant changes
same,thermal response latency in treated paw,"[8]; diabetic mice, daily topical 2% or 10% hydrogel, vs control mice",did not demonstrate any significant changes
same,neurite outgrowth compared with LD control,[9],2 fold
same,expression of NDUFS3 mitochondrial protein,NDUFS3,restored the expression
same,activity of citrate synthase,citrate synthase,restored the deficits
same,thermal latency,[10],dropped to approximate the levels in the non-diabetic control rats
